Reference: patent US20080227809A1, “Arylalkylamine Vanadium (V) Salts for the Treatment and/or Prevention of Diabetes Mellitus” (GENMEDICA THERAPEUTICS SL, priority 2004, published 2008)

Columns and labels:
[1] = system: adipocytes from treated diabetic rats; assay: glucose transport in adipocytes isolated from chronically treated diabetic rats; assay type: in vivo, rat; details: fourteen days of treatment
[2] = system: streptozotocin-induced diabetic rats with undetectable circulating insulin
Method: Male Wistar rats weighting 180-220 g were purchased from Harlan (Interfauna Ibèrica S.A., Spain). Diabetes was induced by a single intraperitoneal injection of a freshly prepared solution of streptozotocin (in some studies the dose was 45 mg/kg body weight and in some others 100 mg/kg body weight dissolved in 50 mM citrate buffer, pH 4.5). Only diabetic animals with glycemia above 300 mg/dl were used. The animals were housed in animal quarters at 22° C. with a 12 h light/12 h dark cycle and were fed ad libitum. All procedures used were approved by the animal ethical committee of the University of Barcelona, Spain.
Osmotic minipumps delivering B6V10 (2.5 μmol/kg body wt/day) or decavanadate (2.5 μmol/kg body wt/day) were implanted subcutaneously in diabetic rats anaesthetised by ketamine hydrochloride (95 mg/kg) and xylasine (10 mg/kg). […] Glycemia was measured on arterio-venous blood collected from the tail vessels at 09:00 am for two weeks, before the administration of vanadate. Insulin concentrations were determined before and after treatment. In another set of experiments, B6V10 was orally administered at a single dose of 5 μmol/kg/day during the first week and 10 μmol/kg/day during 2 additional weeks by gastric gavage. A control group received the corresponding decavanadate salt in the absence of benzylamine. At the end of the treatment, animals were sacrificed and the liver, fat pad, heart and lung were kept at −80° C. and the plasma at −20° C. until their use for in vitro analysis.
In glucose tolerance tests and in chronic treatments, circulating glucose concentrations were determined by a rapid glucose analyser (Accutrend® Sensor Comfort, Roche, Basel. Switzerland). Plasma insulin (IRI) concentration was determined by ELISA method using a kit obtained from Crystal Chem. Inc. (Downers Grove, Ill.).
To this end, rats were made diabetic by the injection of a large dose of streptozotocin (100 mg/kg) that eliminates β-pancreatic insulin content.

[3] = system: isolated mouse adipocytes; assay: glucose transport (2-DG) in isolated mouse adipocytes; assay type: cell-based; details: 100 μM
Method: Adipose cells from FVB mice were incubated for 45 minutes in basal conditions (Basal) or in the presence of 100 nM insulin (Ins), and different concentrations of hexaquis(benzylammonium) decavanadate (B6V10) in the absence or in the presence of 1 mM semicarbazide (SCZ) and thereafter, 2-DG transport was measured over 5 min.

protein kinase B = protein kinase B phosphorylation in isolated rat adipocytes; assay type: cell-based; details: 25 μM
Method: (§1) Isolated fat cells were disrupted for total membrane preparation by hypo-osmotic lysis in a 20 mM HES buffer and an antiprotease and antiphosphatase cocktail as reported by Abella et al. (2003, Diabetes 52: 1004-1013). Protein concentrations were determined by the Bradford method (Bradford, 1976, Anal. Biochem. 72: 248-254) with gamma-globulin as protein concentration standard. Immunoprecipitation and immunoblot assays were performed as previously described by Abella et al. (2004, Id.) with the use of a monoclonal antiphosphotyrosine antibody for the immunoprecipitation and an anti-insulin receptor antibody for immunobloting, respectively. SDS-polyacrylamide gel electrophoresis was performed on membrane proteins following conventional procedures. Proteins were transferred to Immobilon and immunoblotting was performed as reported by Castello et al. (1994, J. Biol. Chem. 269: 5905-5912).
The mechanism of action of B6V10 was investigated in isolated rat adipocytes. Adipose cells from Wistar rats were incubated for different times in the presence of 25 μM hexaquis(benzylammonium) decavanadate (B6V10). Cells were also incubated in the presence of insulin (100 nM, 45 min), decavanadate (25 μM, 45 min) or semicarbazide (1 mM, 45 min). Subsequently, 2-deoxyglucose uptake (results shown in FIG. 7A), tyrosine phosphorylation of insulin receptor (FIG. 7B), phospho-Thr^308-protein kinase B (FIG. 7C) and phospho-Ser^473-protein kinase B (FIG. 7D) was measured. […] The phosphorylation of protein kinase B induced by B6V10 was parallel to activation of glucose transport (FIGS. 7C and 7D).
The effects of incubation with semicarbazide or phosphatidylinositol 3-kinase inhibitors were also investigated. Adipose cells were incubated with B6V10 (25 μM, 45 min) in the absence or presence of wortmannin (2 μM, 45 min), LY294002 (10 μM, 45 min) or semicarbazide (1 mM, 45 min) and thereafter 2-deoxyglucose uptake was determined during 5 min. Activation of protein kinase B phosphorylation induced by B6V10 was blocked by semicarbazide and it was not observed by decavanadate. In addition, phosphatidylinositol 3-kinase inhibitors wortmannin and LY294002 blocked B6V10-induced glucose transport (FIG. 7E).

adipocyte lipolysis = assay: adipocyte lipolysis; assay type: cell-based
diabetic rats = assay: plasma lipids of diabetic rats; assay type: in vivo, rat
Method: Plasma triglycerides (Biosystems, Barcelona, Spain) and NEFAS (Wako Chemicals, Neuss, Germany) were determined with standard calorimetric methods.
The concentration of circulating lipids under these conditions was also assayed. […] Untreated diabetic (solid bars, FIG. 9B) or nondiabetic rats (open bars, FIG. 9B) were similarly assayed as controls.

db/db mice = assay: chronic treatment of obese diabetic db/db mice, glycemia; assay type: in vivo, mouse
Method: Chronic in vivo efficacy of B6V10 was evaluated in streptozotocin-induced diabetic rats and in db/db mice. Streptozotocin-induced (45 mg/kg) diabetic rats were subcutaneously treated with hexaquis(benzylammonium) decavanadate (2.5 μmol/kg) (B6V10, solid squares, FIG. 8A) or with decavanadate (2.5 μmol/kg) (V10, open circles, FIG. 8A) delivered subcutaneously by osmotic minipumps implanted in the dorsal region. Diabetic rats were also sham-operated (untreated, solid diamonds, FIG. 8A). […] These experiments were repeated using an oral administration protocol. Streptozotocin-induced (45 mg/kg) diabetic rats were orally treated with hexaquis(benzylammonium) decavanadate (5 μmol/kg from day 0 to day 7 and 10 μmol/kg/day from day 7 to day 17) (B6V10, solid squares, FIG. 8B) or received decavanadate (10 μmol/kg) (V10, open circles, FIG. 8B). Nondiabetic rats were also untreated (solid triangles, FIG. 8B).

insulin receptor = assay: tyrosine phosphorylation of insulin receptor in isolated rat adipocytes; assay type: cell-based; details: 25 μM
Method: as §1
The mechanism of action of B6V10 was investigated in isolated rat adipocytes. Adipose cells from Wistar rats were incubated for different times in the presence of 25 μM hexaquis(benzylammonium) decavanadate (B6V10). […] Subsequently, 2-deoxyglucose uptake (results shown in FIG. 7A), tyrosine phosphorylation of insulin receptor (FIG. 7B), phospho-Thr^308-protein kinase B (FIG. 7C) and phospho-Ser^473-protein kinase B (FIG. 7D) was measured. […]

[4] = in vivo

## hexaquis(benzylammonium) decavanadate [Example B6V10]
[1]
  glucose transport in adipocytes of treated rats under basal conditions: increased glucose transport under basal conditions equivalent to that seen in the presence of insulin
[2]; after 28 days, 2.5 μmol/kg
  plasma glucose: reduced
  plasma insulin: without any observable change
[2]; rat, in vivo
  body weight or organ weights: did not affect
[3]
  stimulation of glucose transport (increase): 93%
Protein kinase B
  protein kinase B phosphorylation: rapidly stimulated
  time after addition at which protein kinase B phosphorylation was detectable: 2.5 min
Protein kinase B; semicarbazide 1 mM, 45 min
  protein kinase B phosphorylation in the presence of semicarbazide: blocked
Adipocyte lipolysis
  adipocyte lipolysis: inhibited
Diabetic rats
  plasma concentration of cholesterol: normalized
  plasma concentration of free fatty acids: normalized
  plasma concentration of triglycerides: normalized
db/db mice
  effect on glycemia: ameliorated glycemia
Insulin receptor
  tyrosine phosphorylation of insulin receptors: undetectable
[4]
  hypoglycemia: did not cause hypoglycemia
  toxicological side effects: did not show toxicological side effects
